# Values of other authors, collected in patent publication US6299888A, “Azelastine hydrochloride-containing percutaneous preparation having good percutaneous absorbability and reduced skin irritation” (Teikoku Seiyaku Kabushiki Kaisha, priority 1997, dated 2001).
# Counter-ions that a name gives are not always drawn.
compound,measurement,value
CN1CCCC(n2nc(Cc3ccc(Cl)cc3)c3ccccc3c2=O)CC1 (stereo not shown) [azelastine hydrochloride],dissociation constant (pKa),about 9.5
